Experimental data as given in ChEMBL document CHEMBL3822420, “New peptide deformylase inhibitors design, synthesis and pharmacokinetic assessment” (Bioorg Med Chem Lett, 2016).
Values after ≈ are worked out from the molar mass of the structure shown.

Tests used:
Staphylococcus aureus [1] = assay: Antibacterial activity against methicillin-sensitive Staphylococcus aureus 14-4; type: functional
Rattus norvegicus [2] = assay: (§1) AUC (0 to infinity) in Sprague-Dawley rat at 2 mg/kg, iv; type: ADME, organism-based; parameters: dose 2 mg/kg, route intravenous, time infinity; details: in vivo
[3] = Half life in Sprague-Dawley rat at 2 mg/kg, iv; type: ADME, organism-based; details: in vivo
[4] = Volume of distribution at steady state in Sprague-Dawley rat at 2 mg/kg, iv; type: ADME, organism-based; details: in vivo, read-out: Vdss
Enterococcus faecalis [5] = assay: Antibacterial activity against Enterococcus faecalis 14-1; type: functional
[6] = MRT (0 to t) in Sprague-Dawley rat at 10 mg/kg, po; type: ADME, organism-based; details: in vivo
[7] = Tmax in Sprague-Dawley rat at 2 mg/kg, iv; type: ADME, organism-based; details: in vivo
[8] = AUC (0 to infinity) in Sprague-Dawley rat at 10 mg/kg, po; type: ADME, organism-based; parameters: dose 10 mg/kg, time infinity, route oral; details: Sprague-Dawley, in vivo
Rattus norvegicus [9] = assay: Volume of distribution at steady state in Sprague-Dawley rat at 10 mg/kg, po; type: ADME, organism-based; details: in vivo
Escherichia coli [10] = assay: Antibacterial activity against Escherichia coli 14-1; type: functional
[11] = system: Staphylococcus epidermidis; assay: Antibacterial activity against methicillin-resistant Staphylococcus epidermidis 14-4; type: functional
Enterococcus faecalis [12] = assay: Antibacterial activity against Enterococcus faecalis 14-3; type: functional
Enterococcus faecalis [13] = assay: Antibacterial activity against Enterococcus faecalis 14-5; type: functional
Rattus norvegicus [14] = assay: (§2) AUC (0 to t) in Sprague-Dawley rat at 2 mg/kg, iv; type: ADME, organism-based; details: in vivo
[15] = Tmax in Sprague-Dawley rat at 10 mg/kg, po; type: ADME, organism-based; details: in vivo
[16] = MRT (0 to t) in Sprague-Dawley rat at 2 mg/kg, iv; type: ADME, organism-based; details: in vivo
[17] = system: Staphylococcus epidermidis; assay: Antibacterial activity against methicillin-sensitive Staphylococcus epidermidis 14-3; type: functional
[18] = Half life in Sprague-Dawley rat at 10 mg/kg, po; type: ADME, organism-based; details: Sprague-Dawley, in vivo
[19] = Cmax in Sprague-Dawley rat at 2 mg/kg, iv; type: ADME, organism-based; parameters: dose 2 mg/kg, route intravenous; details: in vivo
[20] = Oral bioavailability in Sprague-Dawley rat at 10 mg/kg; type: ADME, organism-based; details: in vivo
[21] = Clearance in Sprague-Dawley rat at 2 mg/kg, iv; type: ADME, organism-based; details: in vivo
Enterococcus faecalis [22] = assay: Antibacterial activity against Enterococcus faecalis 14-2; type: functional
Escherichia coli [23] = assay: Antibacterial activity against Escherichia coli 14-2; type: functional
Escherichia coli [24] = assay: Antibacterial activity against Escherichia coli 14-2 expressing extended-spectrum beta-lactamase; type: functional
[25] = Clearance in Sprague-Dawley rat at 10 mg/kg, po; type: ADME, organism-based; details: Sprague-Dawley, in vivo
Staphylococcus aureus [26] = assay: Antibacterial activity against methicillin-sensitive Staphylococcus aureus 14-1; type: functional
[27] = Cmax in Sprague-Dawley rat at 10 mg/kg, po; type: ADME, organism-based; parameters: dose 10 mg/kg, route oral; details: in vivo
Staphylococcus aureus [28] = assay: Antibacterial activity against methicillin-resistant Staphylococcus aureus 14-5; type: functional
[29] = AUC (0 to t) in Sprague-Dawley rat at 10 mg/kg, po; type: ADME, organism-based; details: in vivo
Staphylococcus aureus [30] = assay: Antibacterial activity against methicillin-sensitive Staphylococcus aureus 14-2; type: functional
Escherichia coli [31] = assay: Antibacterial activity against Escherichia coli 14-1 expressing extended-spectrum beta-lactamase; type: functional
Staphylococcus aureus [32] = assay: Antibacterial activity against methicillin-sensitive Staphylococcus aureus 14-3; type: functional
[33] = system: Staphylococcus epidermidis; assay: Antibacterial activity against methicillin-sensitive Staphylococcus epidermidis 14-1; type: functional
[34] = system: Staphylococcus epidermidis; assay: Antibacterial activity against methicillin-sensitive Staphylococcus epidermidis 14-2; type: functional
[35] = as §1; type: ADME, organism-based; parameters: dose 2 mg/kg, route intravenous, time infinity; details: Sprague-Dawley, in vivo
[36] = as §2; type: ADME, organism-based; details: Sprague-Dawley, in vivo
[37] = system: Staphylococcus epidermidis; assay: Antibacterial activity against methicillin-resistant Staphylococcus epidermidis 14-2; type: functional
Staphylococcus aureus [38] = assay: Antibacterial activity against methicillin-resistant Staphylococcus aureus 14-2; type: functional
Staphylococcus aureus [39] = assay: Antibacterial activity against methicillin-resistant Staphylococcus aureus 14-4; type: functional
[40] = system: Staphylococcus epidermidis; assay: Antibacterial activity against methicillin-resistant Staphylococcus epidermidis 14-3; type: functional
Staphylococcus aureus [41] = assay: Antibacterial activity against methicillin-resistant Staphylococcus aureus 14-1; type: functional
[42] = system: Staphylococcus epidermidis; assay: Antibacterial activity against methicillin-resistant Staphylococcus epidermidis 14-1; type: functional

Row | SMILES | MIC (Staphylococcus aureus [1]) | half-life [3] | Vd [4] | MIC (Enterococcus faecalis [5]) | MRT last [6] | Tmax [7] | AUC(0-inf) [8] | Vdss (Rattus norvegicus [9]) | MIC (Escherichia coli [10]) | MIC [11] | MIC (Enterococcus faecalis [12]) | MIC (Enterococcus faecalis [13]) | Tmax [15] | MRT last [16] | MIC [17] | half-life [18] | Cmax [19] | bioavailability [20] | clearance [21] | MIC (Enterococcus faecalis [22]) | further results
1 | CCCC[C@H](CN(O)C=O)C(=O)N1CC2(CC2)C[C@H]1C(=O)Nc1ncc(C)s1 | < 0.008 µg/mL | 68.4 min | 3.6 L/kg | 0.125 µg/mL (≈ 0.306 µM) | 4.42 h | 4.8 min | 2130 ng·h/mL | 36.5 L/kg | 32 µg/mL (≈ 78.3 µM) | < 0.008 µg/mL | 0.5 µg/mL (≈ 1.22 µM) | 0.25 µg/mL (≈ 0.612 µM) | 34.8 min | 1.74 h | < 0.008 µg/mL | 300 min | 1090 ng/mL | 30% | 23.5 mL/min/kg | 0.5 µg/mL (≈ 1.22 µM) | AUC (Rattus norvegicus [2]): 653 ng·h/mL; AUCt (Rattus norvegicus [14]): 653 ng·h/mL; MIC (Escherichia coli [23]): 32 µg/mL (≈ 78.3 µM); MIC (Escherichia coli [24]): 32 µg/mL (≈ 78.3 µM); CL/F [25]: 82.3 mL/min/kg; MIC (Staphylococcus aureus [26]): < 0.008 µg/mL; Cmax [27]: 630 ng/mL; MIC (Staphylococcus aureus [28]): < 0.008 µg/mL; AUC(0-t) [29]: 2080 ng·h/mL; MIC (Staphylococcus aureus [30]): < 0.008 µg/mL; MIC (Escherichia coli [31]): 0.125 µg/mL (≈ 0.306 µM); MIC (Staphylococcus aureus [32]): < 0.008 µg/mL; MIC [33]: < 0.008 µg/mL; MIC [34]: < 0.008 µg/mL
2 | CCCC[C@H](CN(O)C=O)C(=O)N1CC2(CC2)C[C@H]1c1nc(-c2cccnc2)no1 | 0.5 µg/mL (≈ 1.21 µM) | 66.6 min | 1.9 L/kg | 2 µg/mL (≈ 4.84 µM) | 1.68 h | 4.8 min | 1300 ng·h/mL | 15.1 L/kg | 64 µg/mL (≈ 155 µM) | 0.5 µg/mL (≈ 1.21 µM) | 2 µg/mL (≈ 4.84 µM) | 2 µg/mL (≈ 4.84 µM) | 15 min | 0.61 h | 0.125 µg/mL (≈ 0.302 µM) | 76.8 min | 929 ng/mL | 40% | 51.2 mL/min/kg | 2 µg/mL (≈ 4.84 µM) | AUC(0-inf) [35]: 657 ng·h/mL; AUC(0-t) [36]: 654 ng·h/mL; MIC [37]: 0.25 µg/mL (≈ 0.605 µM); MIC (Escherichia coli [23]): 64 µg/mL (≈ 155 µM); MIC (Staphylococcus aureus [38]): 0.5 µg/mL (≈ 1.21 µM); MIC (Staphylococcus aureus [39]): 0.5 µg/mL (≈ 1.21 µM); MIC (Escherichia coli [24]): 32 µg/mL (≈ 77.4 µM); CL/F [25]: 136 mL/min/kg; MIC (Staphylococcus aureus [26]): 0.5 µg/mL (≈ 1.21 µM); MIC [40]: 0.125 µg/mL (≈ 0.302 µM); Cmax [27]: 893 ng/mL; MIC (Staphylococcus aureus [28]): 0.5 µg/mL (≈ 1.21 µM); AUC(0-t) [29]: 1280 ng·h/mL; MIC (Staphylococcus aureus [41]): 0.5 µg/mL (≈ 1.21 µM); MIC [42]: 0.25 µg/mL (≈ 0.605 µM); MIC (Staphylococcus aureus [30]): 0.5 µg/mL (≈ 1.21 µM); MIC (Escherichia coli [31]): 1 µg/mL (≈ 2.42 µM); MIC (Staphylococcus aureus [32]): 0.5 µg/mL (≈ 1.21 µM); MIC [33]: 0.125 µg/mL (≈ 0.302 µM); MIC [34]: 0.5 µg/mL (≈ 1.21 µM)
